Earlier results as cited in US20040058975A1, “Method for fertility control” (Schering AG, priority 2002, published 2004).
Where two headings read alike, the source gives them in different places.

Columns and labels:
ovulation [1] = details: several mammalian species including rats, rabbits, sheep
ovulation [2] = details: monkeys
ovulation [3] = details: women
COX-2 = COX-2 (Homo sapiens, UniProt P35354); details: humans
ovulation [4] = details: COX-2 deficient mice

Chain of COX-2 (P35354 18-604): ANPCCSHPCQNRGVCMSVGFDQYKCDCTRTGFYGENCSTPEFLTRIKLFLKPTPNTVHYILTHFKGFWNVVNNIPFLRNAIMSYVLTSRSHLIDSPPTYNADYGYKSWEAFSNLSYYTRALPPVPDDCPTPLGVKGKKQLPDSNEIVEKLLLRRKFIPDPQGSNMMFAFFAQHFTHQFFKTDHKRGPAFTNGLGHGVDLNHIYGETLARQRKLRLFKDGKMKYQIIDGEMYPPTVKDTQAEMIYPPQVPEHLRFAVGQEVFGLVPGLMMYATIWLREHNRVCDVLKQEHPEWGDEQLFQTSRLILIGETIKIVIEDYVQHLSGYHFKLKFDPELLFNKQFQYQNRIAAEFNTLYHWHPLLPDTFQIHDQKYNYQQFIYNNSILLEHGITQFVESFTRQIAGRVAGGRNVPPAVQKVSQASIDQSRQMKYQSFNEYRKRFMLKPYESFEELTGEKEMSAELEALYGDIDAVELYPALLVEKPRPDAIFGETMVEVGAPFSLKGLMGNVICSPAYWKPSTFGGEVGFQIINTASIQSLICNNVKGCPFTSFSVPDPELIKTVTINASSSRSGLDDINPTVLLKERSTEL

| Compound | ovulation (ovulation [1]) | anovulation (ovulation [4]) | further results |
| --- | --- | --- | --- |
| CC(=O)Oc1ccccc1C(=O)O [Aspirin] | may prevent ovulation |  |  |
| COc1ccc2c(c1)c(CC(=O)O)c(C)n2C(=O)c1ccc(Cl)cc1 [Indomethacin] | may prevent ovulation |  | ovulation (ovulation [2]): block ovulation; ovulation (ovulation [3]): block ovulation |
| COc1ccc2cc([C@H](C)C(=O)O)ccc2c1 [Naproxen] | may prevent ovulation |  |  |
| CS(=O)(=O)c1ccc(C2=C(c3ccccc3)C(=O)OC2)cc1 [Rofecoxib, 4-(4-mesylphenyl)-3-phenylfuran-2(5H)-one] |  |  | follicular rupture (COX-2): delayed follicular rupture; peripheral hormonal cycles (COX-2): without affecting peripheral hormonal cycles |
| CCCCC[C@H](O)/C=C/[C@H]1[C@H](O)CC(=O)[C@@H]1C/C=C\CCCC(=O)O [prostaglandin E2] |  | restored |  |
| Interleukin-1β: Interleukin-1β |  | restored |  |
